# “Also recorded” adds a separate entry of the source.
# Test system: A1847 parental and CARM1 knockout cells
# Assay: Epigenetic targeting small molecule set screen (14-day colony formation)
# Assay type: cell-based, human
# Settings: 14 days, normalized to vehicle
# Procedure: FIG. 26 illustrates that CARM1-expressing cells are selectively sensitized to EZH2 inhibitors. Equal number of parental control or CARM1 knockout […] cells were plated and treated with each of the 23 individual epigenetic inhibitors for 14 days. The media with the inhibitors was refreshed every 3 days. Cell growth was quantified as integrated density using NIH Image J software. Quantification of the average integrated density graphed as a scatter plot. The X-axis indicates the relative growth of treated CARM1 high parental […] cells compared with DMSO vehicle controls. Y-axis indicates the relative growth of treated CARM1 knockout […] cells compared with DMSO vehicle controls. n=4; and error bars represents SEM. FIG. 27 illustrates a table of EZH2 inhibitors that are selective against CARM1 expression. CARM1-high parental controls and CARM1 knockout […] cells were treated with the indicated concentration of the small molecules in a 14-day colony formation assay. Integrated density for each well was calculated using NIH Image J software. The relative growth of the indicated cells was determined by normalizing to the vehicle control treated cells. n=4 and p-value was calculated using a two-tailed t-test. […] parental and CARM1 knockout cells were plated in 24-well plates and treated with 24 epigenetic compounds. Cell medium was changed every three days with appropriate drug doses for 14 days or until control wells became confluent. Colonies were washed twice with PBS and fixed with 10% methanol and 10% acetic acid in distilled water. Fixed colonies were stained with 0.005% crystal violet. Integrated density was measured using NIH ImageJ software as a surrogate for cell growth.
row,SMILES,selective growth suppression of CARM1-expressing vs CARM1 KO cells
1,CC(=O)Nc1ccc(C(=O)Nc2ccccc2N)cc1 [CI994],equally effective in suppressing the growth of both CARM-expressing and KO cells; also recorded: showed no difference between parental and CARM1 knockout cells
2,"CCCc1cc(C)[nH]c(=O)c1CNC(=O)c1cc(-c2ccc(N3CCN(C(C)C)CC3)nc2)cc2c1cnn2C(C)C [UNC1999, 1-isopropyl-6-(6-(4-isopropylpiperazin-1-yl)pyridin-3-yl)-N-((6-methyl-2-oxo-4-propyl-1,2-dihydropyridin-3-yl)methyl)-1H-indazole-4-carboxamide]",showed selectivity against CARM1-expressing cells; also recorded: selectively sensitive

# — US12036222B2, “Methods of treating cancers overexpressing CARM1 with EZH2 inhibitors and a PARP inhibitor” (The Wistar Institut of Anatomy and Biology, priority 2018, dated 2024)
